Experimental findings from US20260207570A1, “OPTIMIZED DOSING OF LERIGLITAZONE” (MINORYX THERAPEUTICS S.L., priority 2022, published 2026) are described below.

Data set [1] can be described thus: Phase 1 safety and tolerability (treatment-emergent adverse events). The data set is classed as in vivo, human. Here is the method:
Study design: A phase 1, randomized, double blind, placebo-controlled, single-center clinical study in 33 male healthy volunteers (HV) (19-54 years, 63.2-95.7 Kg) was conducted with leriglitazone HCl and divided in two parts: a single ascending dose (SAD) with three dose levels (30, 90 and 270 mg) in fasted conditions, followed with two dose levels (90 and 270 mg) in fed conditions; a multiple ascending dose (MAD) with a double-blind, parallel-design with two dose levels (135 and 270 mg) for 8 days and a separate cohort of subjects in an open-label parallel design with two dose levels (135 and 270 mg) including cerebrospinal fluid (CSF) collection on day 8. In the fasted conditions a fasting period of at least 4 hours was required before obtaining plasma samples. The food effect (FE) was assessed by comparing fasted with fed conditions (dosing after a high-fat breakfast per FDA definition with a calculated caloric content of 918 kcal). In the MAD part (fed) the medication was taken before a normal breakfast. Leriglitazone HCl was supplied by ChemConnection and an oral suspension of leriglitazone (20% w/v kleptose, 2% ethanol in 100 mM phosphate buffer pH=7.8) at 6 mg/ml was used in the study. Safety: Safety and tolerability assessments consisted of adverse events (AEs), clinical laboratory, vital signs, 12-lead electrocardiogram (ECG), and physical examination.

Substrate in data set [2]: CC(O)c1ccc(CCOc2ccc(CC3SC(=O)NC3=O)cc2)nc1
The data set can be described thus: Metabolism kinetics with recombinant CYP2C8. The data set is classed as in vitro ADME, human. An excerpt: CYP2C8 and CYP3A4 were identified in vitro as the major contributing enzymes of leriglitazone with CYP2C8 mostly responsible for the formation of the main metabolite M3. Kinetic parameters of human CYP2C8 and CYP3A4 mediated metabolism of leriglitazone were studied in in vitro studies using recombinant CYP3A4 and CYP2C8 enzymes (ADMESCOPE, Finland). […] As the disappearance of leriglitazone was very slow especially at high initial concentrations, the accuracy of the fit was not as good as based on M3 formation. […] Thus, it was not possible to fit the kinetic parameters Km and Vmax.

The mark [3] stands for this setting: phase 1, healthy male volunteers.
Where [4] appears, read: other: recombinant CYP2C8, based on M3 formation.
The mark [5] stands for this setting: other: recombinant CYP2C8, based on leriglitazone depletion.

What is called Km is the concentration of substrate that gives half-maximal velocity.

As to `CC(O)c1ccc(CCOc2ccc(CC3SC(=O)NC3=O)cc2)nc1.Cl` (centres unmarked) [leriglitazone HCl, 5-[[4-[2-[5-(1-hydroxyethyl)pyridin-2-yl]ethoxy]phenyl]methyl]-1,3-thiazolidine-2,4-dione hydrochloride], the “clinical laboratory evaluations, vital signs, ECGs and physical examinations” value in data set [1] (phase 1, healthy male subjects) is reported as “No clinically significant changes from baseline”. For the same molecule, in data set [1] (setting [3]), the “serious AEs” value was “no serious AEs reported” and the “severity of treatment-emergent adverse events” value is listed as “of mild severity”. Also, the safety and tolerability result in data set [1] (single and multiple doses, healthy male subjects) is “safe and well tolerated”.

B1: human CYP2C8 (Homo sapiens) (protein)
chain: MEPFVVLVLCLSFMLLFSLWRQSCRRRKLPPGPTPLPIIGNMLQIDVKDICKSFTNFSKVYGPVFTVYFGMNPIVVFHGYEAVKEALIDNGEEFSGRGNSPISQRITKGLGIISSNGKRWKEIRRFSLTTLRNFGMGKRSIEDRVQEEAHCLVEELRKTKASPCDPTFILGCAPCNVICSVVFQKRFDYKDQNFLTLMKRFNENFRILNSPWIQVCNNFPLLIDCFPGTHNKVLKNVALTRSYIREKVKEHQASLDVNNPRDFIDCFLIKMEQEKDNQKSEFNIENLVGTVADLFVAGTETTSTTLRYGLLLLLKHPEVTAKVQEEIDHVIGRHRSPCMQDRSHMPYTDAVVHEIQRYSDLVPTGVPHAVTTDTKFRNYLIPKGTTIMALLTSVLHDDKEFPNPNIFDPGHFLDKNGNFKKSDYFMPFSAGKRICAGEGLARMELFLFLTTILQNFNLKSVDDLKNLNTTAVTKGIVSLPPSYQICFIPV
notes: purchased ADMESCOPE, Finland
On to B1, for which, in data set [2] (setting [4]), the Michaelis constant (Km) turned out to be 34.0 µM and the kcat is given as 2.27 pmol/min/pmol CYP. In data set [2] (setting [5]), the Michaelis-Menten constant (Km) amounted to 13.7 µM and the kcat stood at 1.60 pmol/min/pmol CYP.
